According to patent US8633168B2, “Inhibitors of S-adenosyl-L-methionine decarboxylase” (Genzyme Corporation, priority 2007, dated 2014):
Where two headings read alike, the source gives them in different places.

Columns and labels:
CYP2C9 = CYP2C9 (Homo sapiens, UniProt P11712); experiment: Cytochrome P450 inhibition, CYP2C9
From the text: (§1) This cytochrome P450 high throughput IC50 inhibition assay is utilized for screening potential inhibitors of the 5 major human CYP isozyme catalytic activities (CYP3A4, 2D6, 2C9, 2C19, and 1A2).

CYP3A4 = CYP3A4 (Homo sapiens, UniProt P08684); experiment: Cytochrome P450 inhibition, CYP3A4
Sequence of CYP3A4 (P08684 whole entry): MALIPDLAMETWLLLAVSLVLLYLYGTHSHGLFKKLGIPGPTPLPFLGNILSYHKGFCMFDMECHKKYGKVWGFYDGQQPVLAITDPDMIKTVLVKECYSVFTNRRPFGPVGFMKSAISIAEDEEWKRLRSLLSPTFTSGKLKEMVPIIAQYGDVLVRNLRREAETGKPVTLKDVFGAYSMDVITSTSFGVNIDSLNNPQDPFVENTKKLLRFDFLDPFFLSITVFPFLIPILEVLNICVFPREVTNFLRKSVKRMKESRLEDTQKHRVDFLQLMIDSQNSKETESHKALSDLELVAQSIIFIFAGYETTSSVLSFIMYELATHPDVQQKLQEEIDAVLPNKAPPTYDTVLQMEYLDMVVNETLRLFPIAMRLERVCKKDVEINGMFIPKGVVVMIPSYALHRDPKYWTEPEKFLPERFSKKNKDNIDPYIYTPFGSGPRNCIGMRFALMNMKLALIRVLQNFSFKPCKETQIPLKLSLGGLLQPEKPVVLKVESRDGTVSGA
From the text: as §1

Mouse brain exposure = format: in vivo; settings: for AUC / Kp: Table 3; for AUC: mouse brain; for Kp: mouse, read-out: Mouse Brain exposure compared with blood AUC (%)
Experimental: This was determined by harvesting brains at selected time points, weighing and extracting total tissue homogenate for LC/MS/MS analysis. The amount of test compound associated with the brain was calculated by subtracting that amount attributable to blood vessels (7%, times the blood exposure levels).

[1] = Plasma protein binding (RED), human; format: in vitro ADME
Experimental: Rapid Equilibrium Dialysis device (RED) is a 96-well formatted dialysis with disposable inserts and Teflon base design providing short incubation time. The membrane in RED physically separates of bound and free drug. After 4 hr incubation at 37° C., drug concentrations at both plasma (e.g., human, rat, dog, monkey, mouse) and pH 7.4 PBS buffer sides was quantitated by LC/MS/MS and % bound drug in plasma was calculated.

[2] = Microsomal stability, human; format: in vitro ADME; settings: for Microsomal stability (CL) human: Table 2; for CLint scaled: Example 12 chart
Experimental: (§2) Liver microsomes and hepatocytes represent an in vitro surrogate for assessing the phase I/II metabolic stability of new discovery leads. Following the incubation of the compounds with microsomes or hepatocytes of different species (e.g., human, rat, dog, monkey, mouse), the samples were transferred to 96 well plates for quantitation using LC/MS/MS. The % of compound remaining was measured and used to calculate clearance and % hepatic blood flow.

CYP1A2 = biological target: T1, CYP1A2 (Homo sapiens, UniProt P05177); experiment: Cytochrome P450 inhibition, CYP1A2
T1 sequence (P05177 1-516): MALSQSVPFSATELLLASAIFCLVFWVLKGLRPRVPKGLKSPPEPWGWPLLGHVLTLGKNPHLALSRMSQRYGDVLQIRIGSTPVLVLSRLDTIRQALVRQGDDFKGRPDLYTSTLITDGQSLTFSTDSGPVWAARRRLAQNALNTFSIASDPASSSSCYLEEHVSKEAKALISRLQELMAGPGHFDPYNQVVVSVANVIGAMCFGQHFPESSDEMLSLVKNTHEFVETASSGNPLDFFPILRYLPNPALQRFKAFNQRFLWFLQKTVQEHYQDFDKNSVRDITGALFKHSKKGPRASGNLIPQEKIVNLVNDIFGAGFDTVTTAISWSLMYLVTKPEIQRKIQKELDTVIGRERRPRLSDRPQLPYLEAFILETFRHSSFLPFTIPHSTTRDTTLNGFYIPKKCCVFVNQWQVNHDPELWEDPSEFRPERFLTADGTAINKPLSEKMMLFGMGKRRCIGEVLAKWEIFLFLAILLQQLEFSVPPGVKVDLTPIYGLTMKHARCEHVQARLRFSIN
From the text: as §1

[3] = Permeability through lipid soaked artificial membrane; format: in vitro ADME; settings: for Perm.: Table 2; for Papp: PAMPA
Experimental: A stock solution for each test compound was prepared at 10 mM in DMSO. These were diluted into phosphate buffer and placed on one side (donor) of a two chamber microtiter plate separated by a lipid soaked membrane. With time, the compound passively diffused across the membrane barrier and the concentration in the second chamber (acceptor) increases. At the end of the experiment, drug concentration was determined in both the donor and acceptor solutions by UV absorbance. The permeability was calculated from the change in concentration, surface area, and incubation time.

[4] = system: Trypanosoma brucei rhodesiense strain STIB 900; experiment: Drug sensitivity assay against T. b. rhodesiense (Alamar blue); format: cell-based
From the text: Trypanosoma brucei rhodesiense strain STIB 900, a clone of a population isolated in 1982 from a patient in Tanzania which is known to be susceptible to all currently used drugs was used in these assays. The bloodstream form trypomastigotes of this strain were maintained in supplemented Modified Eagle's Medium according to standard protocols (Hirumi H, Hirumi K, 1989. “Continuous cultivation of Trypanosoma brucei blood stream forms in a medium containing a low concentration of serum protein without feeder cell layers”. J Parasitol 75: 985-9).
(§3) Drug sensitivity assays were performed in sterile 96-well microtiter plates, with or without serial drug dilutions. The compounds were tested at 7 concentrations (drug concentration ranging from 90 μg/ml to 0.123 μg/ml in 3-fold dilutions). The highest concentration for the test compounds was 90 μg/ml. Each drug is tested in duplicate. After 72 hours of incubation the plates were inspected microscopically to assure growth of the controls to determine the minimum inhibitory concentration (MIC), i.e., the lowest drug concentration at which no trypanosomes with normal morphology and motility can be seen compared to control wells. Cell viability is measured by Alamar blue staining and IC50 values were calculated.
The bloodstream form trypomastigotes of the three strains are maintained according to standard protocols established at STI.
as §3, with “are” for “were”, “The” for “The compounds were tested at 7 concentrations (drug concentration ranging from 90 μg/ml to 0.123 μg/ml in 3-fold dilutions). The”, “is” for “was”
The preliminary screen used T. b. rhodesiense. The compounds were tested at 7 concentrations (drug concentration ranging from 90 μg/ml to 0.123 μg/ml in 3-fold dilutions).

[5] = Solubility in phosphate buffer; format: physicochemical; settings: for Sol.: Table 2, @ 7.4; for solubility at 16 hours: phosphate buffer
Experimental: A stock solution for each test compound was prepared at 25 mM in DMSO. These were diluted into phosphate buffer and equilibrated for 16 hours at room temperature, and then filtered to remove precipitated compound. The UV absorbance of this equilibrated sample was compared to a single point reference standard.

L. donovani (axenic) = experiment: Screening against L. donovani (axenic); format: cell-based; settings: Leishmania donovani; Screening Data
CYP2D6 = CYP2D6 (Homo sapiens, UniProt P10635); experiment: Cytochrome P450 inhibition, CYP2D6
Sequence of CYP2D6 (P10635 whole entry): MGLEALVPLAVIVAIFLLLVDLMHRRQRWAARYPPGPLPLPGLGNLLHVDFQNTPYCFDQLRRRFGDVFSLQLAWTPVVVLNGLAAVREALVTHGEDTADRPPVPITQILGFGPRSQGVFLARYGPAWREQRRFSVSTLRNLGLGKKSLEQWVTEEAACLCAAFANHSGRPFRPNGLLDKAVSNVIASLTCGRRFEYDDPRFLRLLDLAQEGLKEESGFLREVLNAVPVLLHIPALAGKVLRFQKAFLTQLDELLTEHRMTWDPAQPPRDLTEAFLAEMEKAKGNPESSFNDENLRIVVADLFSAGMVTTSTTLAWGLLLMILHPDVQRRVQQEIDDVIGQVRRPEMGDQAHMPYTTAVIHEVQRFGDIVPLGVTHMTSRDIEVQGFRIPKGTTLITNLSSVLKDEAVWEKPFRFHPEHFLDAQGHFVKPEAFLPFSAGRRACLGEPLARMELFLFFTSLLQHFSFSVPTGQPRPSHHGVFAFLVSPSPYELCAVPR
From the text: as §1

[6] = Hepatocyte stability, rat; format: in vitro ADME; settings: for Hepatocyte stability (CL) rat: Table 2; for CLint scaled: hepatocytes, Example 12 chart
Experimental: as §2

CYP2C19 = CYP2C19 (Homo sapiens, UniProt P33261); experiment: Cytochrome P450 inhibition, CYP2C19
Sequence of CYP2C19 (P33261 whole entry): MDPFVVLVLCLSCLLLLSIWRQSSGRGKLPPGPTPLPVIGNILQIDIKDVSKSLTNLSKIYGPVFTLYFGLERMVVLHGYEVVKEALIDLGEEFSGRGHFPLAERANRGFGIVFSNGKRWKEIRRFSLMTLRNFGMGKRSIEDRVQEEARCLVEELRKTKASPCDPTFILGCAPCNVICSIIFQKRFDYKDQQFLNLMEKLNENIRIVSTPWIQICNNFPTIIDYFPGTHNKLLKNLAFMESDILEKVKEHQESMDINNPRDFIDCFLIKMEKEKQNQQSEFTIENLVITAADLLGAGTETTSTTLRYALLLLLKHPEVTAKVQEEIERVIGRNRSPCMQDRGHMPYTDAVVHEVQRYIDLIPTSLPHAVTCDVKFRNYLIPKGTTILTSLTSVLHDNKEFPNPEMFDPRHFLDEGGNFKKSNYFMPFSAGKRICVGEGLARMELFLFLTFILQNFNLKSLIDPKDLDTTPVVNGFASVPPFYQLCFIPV
From the text: as §1

[7] = read-out: CYP IC50 2C9, Example 12 chart
[8] = read-out: CYP IC50 3A4, Example 12 chart
[9] = read-out: CYP IC50 1A2, Example 12 chart
[10] = Screening Data, read-out: IC50 T. b. rhod.
[11] = Table 1, 72 hours incubation, Alamar blue, read-out: IC50 against T. b. rhodesiense (ug/mL) by STI
[12] = Table 2, read-out: IC50 against T. b. rhodesiense (ug/mL) by STI
[13] = aqueous buffer, kinetic from dmso stock, Example 12 chart, pH 7.4
[14] = read-out: CYP IC50 2D6, Example 12 chart
[15] = read-out: CYP IC50 2C19, Example 12 chart
[16] = Table 3, read-out: IC50 against T. brucei rhodesiense
[17] = plasma, pH 7.4, Example 12 chart, human
[18] = human, probe fluorometric substrates (not named)

Sequence of CYP2C9 (P11712 whole entry): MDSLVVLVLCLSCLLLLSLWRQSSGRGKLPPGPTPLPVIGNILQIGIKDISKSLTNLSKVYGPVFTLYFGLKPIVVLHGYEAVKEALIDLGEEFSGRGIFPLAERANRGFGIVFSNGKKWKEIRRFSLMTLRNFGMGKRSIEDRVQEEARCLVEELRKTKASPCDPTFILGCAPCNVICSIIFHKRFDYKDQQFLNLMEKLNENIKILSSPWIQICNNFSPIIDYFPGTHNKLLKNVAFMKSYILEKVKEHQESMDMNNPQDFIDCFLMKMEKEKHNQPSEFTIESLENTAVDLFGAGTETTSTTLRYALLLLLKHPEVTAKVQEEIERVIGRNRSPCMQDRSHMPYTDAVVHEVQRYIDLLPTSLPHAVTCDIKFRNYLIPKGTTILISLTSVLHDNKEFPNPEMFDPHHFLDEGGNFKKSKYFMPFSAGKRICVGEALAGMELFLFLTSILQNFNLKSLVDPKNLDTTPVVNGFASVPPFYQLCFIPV

Microsomal stability (CL) human [2]	CLint scaled ([2]; liver microsomes)	Perm. [3]	IC50 [4, 10]	IC50 [4, 11]	IC50 [4, 12]	Sol. [5]	solubility at 16 hours [5, 13]	IC50 (L. donovani (axenic))	Hepatocyte stability (CL) rat [6]	CLint scaled [6]	SMILES	IC50 (CYP2C9)	IC50 (CYP2C9; [7])	IC50 (CYP3A4)	IC50 (CYP1A2)	IC50 (CYP1A2; [9])	IC50 (CYP2D6)	IC50 (CYP2D6; [14])	IC50 (CYP2C19)	IC50 (CYP2C19; [15])	other results
<4.2 mL/min/kg	< 4.5 mL/min/kg	0.36 10-6 cm/s	1760 nM	0.676 µg/mL	0.676 µg/mL	>51 (@ 7.4) ug/ml	> 51 µg/mL	> 85 µM	<11 mL/min/kg	< 3.5 mL/min/kg	CN(C/C=C\CN)C[C@H]1O[C@@H](n2cnc3c(N)nc(Cl)nc32)[C@H](O)[C@@H]1O [Compound 3]	> 5 µM	> 5 µM	> 5 µM	> 5 µM	> 5 µM	> 5 µM	> 5 µM	> 5 µM	> 5 µM	IC50 (CYP3A4; [8]): > 5 µM; AUC (Mouse brain exposure): 170 ng·h/mL; Kp (Mouse brain exposure; brain relative to blood): 0.0077; Plasma Protein Binding % human ([1]; Example 12 chart, human): 39%; fraction unbound at 4 hr ([1]; pH 7.4, Table 2, human plasma): 0.61; Permeability ([3]; Example 12 chart): 0.36 10−6 cm/sec
<4.2 mL/min/kg	< 4.5 mL/min/kg	0.00 10-6 cm/s	2590 nM	0.908 µg/mL	0.908 µg/mL	>47 (@ 7.4) ug/ml	> 47 µg/mL	> 85 µM	<11 mL/min/kg	< 3.5 mL/min/kg	CN(C/C=C\CN)C[C@H]1O[C@@H](n2cnc3c(N)ncnc32)[C@@H](F)[C@@H]1O [Compound 2]	> 5 µM	> 5 µM	> 5 µM	> 5 µM	> 5 µM	> 5 µM	> 5 µM	> 5 µM	> 5 µM	IC50 (CYP3A4; [8]): > 5 µM; Plasma Protein Binding % human ([1]; Table 2, human plasma): 32.2%; fraction unbound at 4 hr [1, 17]: 0.678
<4.2 mL/min/kg	< 4.5 mL/min/kg	0.00 10-6 cm/s	1390 nM	0.489 µg/mL	0.489 µg/mL	>47 (@ 7.4) ug/ml	> 47 µg/mL	> 85 µM	<11 mL/min/kg	< 3.5 mL/min/kg	CN(C/C=C\CN)C[C@H]1O[C@@H](n2cnc3c(N)ncnc32)[C@H](F)[C@@H]1O (stereo in doubt) [Compound 1]										IC50 (CYP2C9; [18]): > 5 µM; IC50 (CYP3A4; [18]): > 5 µM; AUC (Mouse brain exposure): 26 ng·h/mL; Kp (Mouse brain exposure; brain relative to blood): 0.0016; Plasma Protein Binding % human ([1]; Table 2, human plasma): 23.3%; fraction unbound at 4 hr [1, 17]: 0.767; IC50 (CYP1A2; [18]): > 5 µM; IC50 [4, 16]: 0.489 µg/mL; IC50 (CYP2D6; [18]): > 5 µM; IC50 (CYP2C19; [18]): > 5 µM

SMILES	Microsomal stability (CL) human [2]	CLint scaled ([2]; liver microsomes)	Perm. [3]	IC50 [4, 10]	IC50 [4, 11]	IC50 [4, 12]	Sol. [5]	solubility at 16 hours [5, 13]	IC50 (L. donovani (axenic))	Hepatocyte stability (CL) rat [6]	CLint scaled [6]	IC50 (CYP2C9)	IC50 (CYP2C9; [7])	IC50 (CYP3A4)	IC50 (CYP1A2)	IC50 (CYP1A2; [9])	IC50 (CYP2D6)	IC50 (CYP2D6; [14])	IC50 (CYP2C19)	IC50 (CYP2C19; [15])	other results
Cc1nc2c(N)ncnc2n1[C@@H]1O[C@H](CN(C)C/C=C\CN)[C@@H](O)[C@H]1O (stereo in doubt) [Compound 4]	<4.2 mL/min/kg	< 4.5 mL/min/kg	0.22 10-6 cm/s	1 nM	0.0004 µg/mL	0.0004 µg/mL	>49 (@ 7.4) ug/ml	> 49 µg/mL	> 85 µM	<11 mL/min/kg	< 3.5 mL/min/kg	> 5 µM	> 5 µM	> 5 µM	> 5 µM	> 5 µM	> 5 µM	> 5 µM	> 5 µM	> 5 µM	IC50 (CYP3A4; [8]): > 5 µM; AUC (Mouse brain exposure): 1180 ng·h/mL; Kp (Mouse brain exposure; brain relative to blood): 0.066; percentage of brain blood barrier penetration (compared with MDL-73811) (Mouse brain exposure; text b82): higher percentage of brain blood barrier penetration; mouse brain exposure, fold greater than for MDL 73811 (Mouse brain exposure; vs MDL73811): ~4 fold; Plasma Protein Binding % human ([1]; Example 12 chart, human): 41.2%; protein binding relative to MDL73811 ([1]; compared with MDL73811 (human and mouse plasma in Table 2)): approximately half; fraction unbound at 4 hr ([1]; pH 7.4, Table 2, human plasma): 0.588; Papp ([3]; Example 12 chart): 0.22 ×10⁻⁶ cm/s; IC50 [4, 16]: 0.0004 µg/mL; IC50 ([4]; read-out: IC50 against T. b. rhodesiense): 0.0004 µg/mL
CN(C/C=C\CN)CC1OC(n2cnc3c(N)ncnc32)C(O)C1O (centres unmarked) [MDL-73811, reference compound]	<4.2 mL/min/kg		0.13 10-6 cm/s	11 nM	0.004 µg/mL	0.004 µg/mL	>47 (@ 7.4) ug/ml		> 85 µM	<11 mL/min/kg	< 3.5 mL/min/kg	> 5 µM	> 5 µM	> 5 µM	> 5 µM	> 5 µM	> 5 µM	> 5 µM	> 5 µM	> 5 µM	IC50 (CYP3A4; human): > 5 µM; AUC (Mouse brain exposure; in vivo): 280 ng·h/mL; Kp (Mouse brain exposure; in vivo): 0.0134; Plasma Protein Binding % human ([1]; Example 12 chart, human): 72.9%; fraction unbound ([1]; pH 7.4, Table 2, human plasma): 0.271; CLint scaled ([2]; microsomes): < 4.5 mL/min/kg; Papp ([3]; Example 12 chart): 1.1 ×10⁻⁶ cm/s; IC50 [4, 16]: 0.004 µg/mL; solubility [5, 13]: > 47 µg/mL
